Legend:
[1] = target: T1, Peroxisome proliferator-activated receptor alpha (Homo sapiens, UniProt Q07869); experiment: (§1) Reporter Gene Assay: Transactivation Assay Expression vectors were prepared by inserting the ligand binding domain cDNA (complementary DNA) of human PPARalpha (amino acid 168-468) and human PPARgamma (amino acid 205-505), 3′ to and in frame with, the yeast GAL4 transcription factor DNA binding domain and the nuclear localization signal from the T-antigen of Polyoma Virus into the mammalian expression vector pSGS (Stratagene). The resulting expression vectors pSGGAL-PPARalpha and pSGGAL-PPARgamma were used in co-transfection experiments together with a modified pGL3 promoter plasmid (Promega) containing five copies of the UAS GAL4 recognition site. 2.5 μg pSGGAL-PPARalpha or pSGGAL-PPARgamma were mixed with 25 μg pGL3p […] and 22.5 μg pBluescript (Stratagene) in 0.95 mL ice cold PBS containing between 9-12 million U-2 OS (human osteosarcoma) cells. The cell/DNA mixture was incubated on ice for 5 minutes and then divided between two 0.4 cm cuvettes and electroporated at 960 μF, 2
T1 sequence (Q07869 whole entry): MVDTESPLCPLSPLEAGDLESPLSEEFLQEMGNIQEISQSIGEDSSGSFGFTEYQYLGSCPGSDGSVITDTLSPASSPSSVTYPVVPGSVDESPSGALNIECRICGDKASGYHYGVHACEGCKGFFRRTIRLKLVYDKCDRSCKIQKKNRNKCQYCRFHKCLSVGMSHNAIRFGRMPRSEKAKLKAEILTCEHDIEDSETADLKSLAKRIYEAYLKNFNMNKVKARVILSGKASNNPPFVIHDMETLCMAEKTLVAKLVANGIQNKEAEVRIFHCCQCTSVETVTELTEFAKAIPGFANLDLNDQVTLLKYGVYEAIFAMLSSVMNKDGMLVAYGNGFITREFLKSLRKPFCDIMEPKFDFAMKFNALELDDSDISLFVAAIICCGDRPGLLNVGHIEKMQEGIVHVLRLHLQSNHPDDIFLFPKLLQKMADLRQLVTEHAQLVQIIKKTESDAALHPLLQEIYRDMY

[2] = target: T2, Peroxisome proliferator-activated receptor gamma (Homo sapiens, UniProt P37231); experiment: as §1
T2 sequence (P37231 whole entry): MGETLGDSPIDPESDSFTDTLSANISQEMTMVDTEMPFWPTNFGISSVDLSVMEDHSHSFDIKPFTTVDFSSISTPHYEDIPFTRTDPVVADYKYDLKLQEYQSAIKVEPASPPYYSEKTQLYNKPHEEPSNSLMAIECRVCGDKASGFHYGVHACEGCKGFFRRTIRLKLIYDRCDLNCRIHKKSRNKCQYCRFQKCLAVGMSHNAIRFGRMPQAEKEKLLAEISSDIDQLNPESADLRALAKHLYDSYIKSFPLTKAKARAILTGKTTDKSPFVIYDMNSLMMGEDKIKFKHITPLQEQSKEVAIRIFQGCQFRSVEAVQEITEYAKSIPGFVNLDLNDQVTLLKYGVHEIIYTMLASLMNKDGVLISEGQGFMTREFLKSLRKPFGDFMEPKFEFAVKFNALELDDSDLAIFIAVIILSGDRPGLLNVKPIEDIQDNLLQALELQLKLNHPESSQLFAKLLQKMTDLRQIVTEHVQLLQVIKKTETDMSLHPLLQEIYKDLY

SMILES	EC50 [1]	EC50 [2]
CS(=O)(=O)Oc1ccc(C(=O)OCc2ccc(CC(SCCc3ccc(F)cc3)C(=O)O)cc2)cc1 (stereo unspecified)	240 nM	1800 nM
O=C(Cc1ccccn1)OCc1ccc(CC(SCCc2ccc(F)cc2)C(=O)O)cc1 (stereo unspecified)	1500 nM	2100 nM
CS(=O)(=O)Oc1ccc(CC(=O)OCc2ccc(CC(SCCc3ccc(F)cc3)C(=O)O)cc2)cc1 (stereo unspecified)	240 nM	1700 nM

From ChEMBL document CHEMBL3886340, “2-substituted-3-phenylpropionic acid derivatives and their use in the treatment of inflammatory bowel disease” (2015)
